Source: patent US20180325947A1, “USE OF MAPK INHIBITORS TO REDUCE LOSS OF HEMATOPOIETIC STEM CELLS DURING EX VIVO CULTURE AND/OR GENETIC MANIPULATION” (Children's Hospital Medical Center, priority 2015, published 2018)
Entries after “also recorded” stand apart in the source; their conditions may differ.

Assays:
[1] = system: human HSC long term repopulating potential; assay: secondary transplant (2T) in NSG mice, long term repopulating potential (LTRP); type: in vivo; details: for secondary engraftment potential / long term repopulating potential (LTRP): 2T NSG mice, 6 weeks, inhibitor present during ex vivo culture, all time points; for number of 2T mice with human cell engraftment (>0.01% hCD45+ cells in BM): 6 weeks post-secondary transplant
Procedure: FIG. 2. A preclinical model for studying adult human HSC ex vivo manipulation and gene transfer and its effect on LTRP. (Panel A) Freshly isolated or thawed mobilized peripheral blood (MPB) derived CD34+ cells were utilized for the study. Two different protocols were utilized for the study where lentivirus (LV) or γ-Retrovirus (RV) mediated gene transfer was performed at indicated time points. 0 h, 18-24 h, 36-42 h, and 72-96 h indicates the total amount of time where cells were exposed in the ex vivo culture after CD34 isolation before injection into NSG mice. (Panel B) After indicated time in culture and transduction, 1 million CD34+ starting equivalent cells were transplanted per NSG mouse after TBI intravenously (primary transplant=1T). Primary human engraftment and multi-lineage reconstitution was analyzed in mice at indicated time periods after bone marrow harvest at 6 and 12 weeks (wks) from left and right femurs, and after sacrifice at 24 wks, from all bones. A portion of cells were analyzed for FACS and the rest were depleted of mouse CD45+ cells and transplanted one to one, into secondary mice (secondary transplant=2T).
Panel B: Number of 2T mice engrafted (>0.01% hCD45^+ cells in BM) are shown above the middle bar and those non-engrafted below.
Human MPB derived CD34^+ cells either fresh or thawed were cultured and transduced with lentivirus (LV) or retrovirus (RV) expressing GFP for the indicated time points. Cells were harvested and phospho-p38MAPK was detected by flow cytometry. Panel A: Representative histogram plot of p-p38 (number represents mean fluorescence intensity (MFI). Panel B: Fold change of p-p38 MAPK MFI (±SEM) in human CD34^+ 38^− 90^+ 45RA^− 49f^+ cells with or without p38 inhibitor (p38i). Panel C: Human CD45^+ engraftment in NSG mice with (striped bars) or without p38 inhibitor (solid bars) after 24 weeks of primary transplant. Panel D: Human engraftment in NSG mice with or without p38i after 6 weeks of secondary transplant. Engrafted mice (>0.01% CD45^+ cells in the whole bone marrow) over total mice transplanted is shown as percentage. Human CD33^+ myeloid (Panels E and F), CD19^+ B-Lymphoid (Panels G and H) and CD34^+ hematopoietic stem/progenitor cells (HSPCs) (Panels I and J) re-constitution with or without p38i (Panels E, G, and I): GFP^− untransduced; (Panels F, H & J): GFP^+ transduced in primary transplanted mice 24 weeks post transplantation are shown. Data expressed as mean±SEM from 5 independent experiments (n=12-21 mice per group). Statistics: Student's t test, *p<0.05, **p<0.01, ***p<0.001.
Engrafted mice (>0.01% CD45^+ cells in the whole bone marrow) are shown above the middle bar, engrafted/Total mice number is shown on the side. […] Data expressed as mean±SEM from 5 independent experiments (n=7-29 mice per group). […]

[2] = system: human CD34+ 38- 90+ HSC enriched population; assay: cell cycle status of HSCs (Ki67 / Hoechst), flow cytometry; type: cell-based; details: for G0 quiescent phase of untransduced and transduced HSCs: early time period of ex vivo culture
Procedure: (§1) Human MPB derived CD34^+ cells were cultured and transduced with lentivirus (LV) or retrovirus (RV) for the indicated time points. Representative Immunofluorescence images of sorted human CD34^+ 38^− 90^+ population treated with or without p38i for 72 hours stained with anti-γH2AX and 53BP1 (Panel A) and quantification of γ-H2AX (Panel B) and 53BP1 (Panel C) MFI/cell. Panel D: Representative histogram plot from flow cytometric analysis of CD34^+ 38^− 90^+ HSC enriched cells stained for γ-H2AX with or without p38 inhibitor (p38i) and quantification of fold change in mean fluorescence intensity (MFI) of γ-H2AX in HSCs (Panel E) and percent GH2AX^+ cells (Panel F) at indicated time period. Percentage shown in histograms are cells positive for γH2AX and the numbers below is mean fluorescent intensity (MFI) (n=5 independent experiments). FACS plot representing HSCs in G0 (Quiescent), G1, and S-G2-M phase of cell cycle with or without p38i (Panel G) and quantification (Panel H) of HSC enriched population at different cell cycle phase at indicated time of ex vivo culture. Percentage of (±SEM) Ki67^− (G0) and Ki67^+ (G1-S-G2-M) HSCs is depicted on the y-axis. (n=4 independent experiments for 24 h LV and n=5 independent experiments for 42 h LV and 72 h RV)). Statistics: paired Student's t test, *p<0.05, **p<0.01, ***p<0.001.
(§2) Human MPB derived CD34^+ cells were cultured and transduced as described in FIG. 17. Panel A: Quantification of γ-H2AX^+ CD34^+ 38^− 90^+ cells at 24, 42, & 72 hours. n=5-8 independent experiments/condition). Panel B: Quantification of immunofluorescence analysis for γ-H2AX (left) and 53BP1 (right) MFI per sorted human CD34^+ 38^− 90^+ cell with or without p38i for 42 hours. Panel C: Quantitative plot representing CD34^+ 38^− 90^+ cells in G0-G1, and S-G2-M phase of cell cycle with or without p38i at 42 hours of ex vivo culture and lentivirus (LV) transduction. (n=6 independent experiments/condition). Statistics: paired Student's t test, *p<0.05, **p<0.01, ***p<0.001. Statistics: Student's t test, *p<0.05, **p<0.01, ***p<[…].
Ki67, a nuclear antigen associated with cell proliferation, was used to determine cell cycle status via flow cytometry; negative stains were considered to represent quiescent HSCs.

[3] = system: human CD34+ 38- 90+ HSC enriched population; assay: DNA damage response (gamma-H2AX, 53BP1) by immunofluorescence and flow cytometry; type: cell-based
Procedure: as §1, §2
Human BM derived CD34 cells were cultured and transduced with lentivirus (LV) for 48 hours. Representative FACS plot representing bone marrow derived HSC enriched CD34^+ 38^− 90^+ population in G0 (Quiescent), G1, and S-G2-M phase of cell cycle with or without p38i (left) and the corresponding representative histogram plot of γH2AX at indicated time and treatment. Percentage shown in histogram refers to cells positive for γH2AX and the numbers below is mean fluorescent intensity (MFI).
p38 inhibition maintains the quiescent phase of HSCs and reduces DNA damage response (DDR) early in culture. Cell cycle entry and gene manipulation induces a DDR in human HSCs that is reduced by inhibiting p38MAPK early in culture. DNA double-strand breaks in Human HSCs were assessed by γ-H2AX staining, a sensitive and specific indicator of DNA double-strand breaks.

[4] = before the first HSC division (24 h)

Compound: Cc1ccc(-n2nc(C(C)(C)C)cc2NC(=O)Nc2ccc(OCCN3CCOCC3)c3ccccc23)cc1 [BIRB-796, 1-[5-tert-butyl-2-(4-methylphenyl)pyrazol-3-yl]-3-[4-(2-morpholin-4-ylethoxy)naphthalen-1-yl]urea]
- secondary engraftment potential / long term repopulating potential (LTRP) [1]: retains
- secondary engraftment potential / long term repopulating potential (LTRP) ([1]; listed as p38i): retain; also recorded: restores; also recorded: rescues
- number of 2T mice with human cell engraftment (>0.01% hCD45+ cells in BM) [1]: significantly increase
- number of 2T mice with human cell engraftment (>0.01% hCD45+ cells in BM) ([1]; listed as Birb796): increases
- effect on HSC cell cycle ([2]; after 24 h, as HSC progressed through cell cycle): lost
- proportion of HSC in the G0 quiescent phase [2, 4]: significantly increased
- proportion of HSC in the S-G2-M phase [2, 4]: decreased
- G0 quiescent phase of untransduced and transduced HSCs [2]: maintain
- G0 quiescent phase of untransduced and transduced HSCs ([2]; listed as p38i): retains
- percentage of γH2AX+ cells ([3]; 36-42 h and 72-96 h groups): significantly reduced
- γH2AX staining ([3]; 24 hours of culture, flow cytometry): returned to levels seen in unmanipulated HSC
- DNA Damage Response (DDR) ([3]; MPB derived CD34+ 38- 90+ cells, ex vivo culture and gene transfer): reduces
- DNA Damage Response (DDR) ([3]; bone marrow (BM) derived CD34+ 38- 90+ cells, LV 48 hours): reduces
- γH2AX foci (DNA damage response) ([3]; cultured and transduced for 36-42 hours or 72 hours): rescued
